Laboratory results: patent US12454551B2, “Peptides as inhibitors of fibrotic matrix accumulation” (Max-Planck-Gesellschaft zur Förderung der Wissenschaften …, priority 2019, dated 2025)
Counter-ions that a name gives are not always drawn. Residues, ends and D or L forms follow the SMILES beside them. No end group written: not given here.

Key:
[1] = test system: bleomycin induced lung fibrosis in C57bl/6 mice; experiment: bleomycin induced lung fibrosis in mice (total collagen in the lung); type: in vivo; settings: intratracheal bleomycin on day 0; 1 mg/mouse/day s.c. from day 11 for 10 days; vs bleomycin alone (p<0.05) or with control peptides
Description: FIG. 4 Prevention of fibrosis progression by the cyclic peptide Gly-Leu-Gln-Gly-Glu (SEQ ID NO: 5) (acetate salt). Lung fibrosis was induced in 6-week-old male C57bl/6 mice using intratracheal bleomycin instillation at a dose of 0.005 units in 50 μl on day 0. Starting on day 11, cyclic Gly-Leu-Gln-Gly-Glu (cyclic GLQGE; SEQ ID NO: 5) was injected subcutaneously at a dose of 1 mg/mouse/day in 0.9% NaCl for a total of 10 days. The control group only received daily injections of 0.9% NaCl. The number of animals in the four groups was N=14/10/10/9 in three experiments. The cyclic peptide Gly-Leu-Gln-Gly-Glu (Cyclic GLQGE; SEQ ID NO: 5) (acetate salt) was tested and compared to cyclic Ac-Gly-Leu-Asn-Gly-Glu (Cyclic GLNGE; SEQ ID NO: 10) (acetate salt) and to cyclic Ac-Gly-Leu-Hyp-Gly-Glu (Cyclic GLOGE; SEQ ID NO: 15) (acetate salt), *p<0.05. Evaluated by t-test. Data are presented as mean ±SEM.
The cyclic peptide Gly-Leu-Gln-Gly-Glu (cyclic GLQGE (SEQ ID NO: 5) acetate salt) was tested for its ability in prevention of lung fibrosis in mice. Lung fibrosis was induced in 6-week-old male C57bl/6 mice using intratracheal bleomycin instillation at a dose of 0.005 units in 50 μl 0.9% NaCl on day 0. […]

[2] = test system: CCl4 induced liver fibrosis in mice; experiment: CCl4 induced liver fibrosis in mice (collagen accumulation in the liver); type: in vivo; settings: for collagen accumulation in the liver (marker of matrix accumulation): mice, CCl4 for 6 weeks, peptide 25 mg/kg/mouse/day intraperitoneal in NaCl 0.9% from day 32 for 10 days, vs CCl4-treated mice, FIG. 1 and 2
Description: FIG. 1 Prevention of fibrosis progression by proline-containing cyclic and amidated linear peptides. Mice were injected for 6 weeks with CCl4 in order to induce liver fibrosis. Starting on day 32 the mice received daily intraperitoneal injections of 25 mg/kg/mouse/day of the peptides in 0.9% NaCl for a total of 10 days. CCl4-treated mice also received NaCl 0.9%. The healthy control group (CT) only received 0.9% NaCl. N=4/10/[…]/8/11/7 in two experiments. The following peptides were tested on CCl4-treated mice: cyclic Pro-Gly-Leu-Gln-Gly-Glu (Cyclic PGLQGE; SEQ ID NO: 6), and compared to two controls: cyclic Pro-Gly-Leu-Asn-Gly-Glu (Cyclic CT1+P: cyclic PGLNGE; SEQ ID NO: 11) and cyclic Pro-Gly-Leu-Hyp-Gly-Glu (Cyclic CT2+P: cyclic PGLOGE; SEQ ID NO: 16). Linear Gly-Leu-Gln-Gly-Glu-NH2 (Linear GLQGE-NH2; SEQ ID NO: 4) was also tested and compared to two controls: linear Gly-Leu-Asn-Gly-Glu-NH2 (Linear CT1—NH2: linear GLNGE-NH2; SEQ ID NO: 9) and linear Gly-Leu-Hyp-Gly-Glu-NH2 (Linear CT2—NH2: linear GLOGE-NH2; SEQ ID NO: 14). * p<0.05. Evaluated by t-test. Data presented as mean+SEM.
FIG. 2 Prevention of fibrosis progression by cyclic peptides and acetylated linear peptides. Mice were injected for 6 weeks with CCl4 in order to induce liver fibrosis. Starting on day 32 the mice received daily intraperitoneal injections of 25 mg/kg/mouse/day of the peptides in 0.9% NaCl for a total of 10 days. CCl4-treated mice also received NaCl 0.9%. The healthy control group (CT) only received 0.9% NaCl. N=5/18/9/9/6/5/4/4 in two experiments. The following peptides were tested on CCl4-treated mice: cyclic Gly-Leu-Gln-Gly-Glu (Cyclic GLQGE; SEQ ID NO: 5), and compared to two controls: cyclic Gly-Leu-Asn-Gly-Glu (Cyclic CT1: cyclic GLNGE; SEQ ID NO: 10) and cyclic Gly-Leu-Hyp-Gly-Glu (Cyclic CT2: cyclic GLOGE; SEQ ID NO: 15). Linear Ac-Gly-Leu-Gln-Gly-Glu (Linear Ac-GLQGE; SEQ ID NO: 3) was also tested and compared to two controls: linear Ac-Gly-Leu-Asn-Gly-Glu (Linear Ac-CT1: linear Ac-GLNGE; SEQ ID NO: 8) and linear Ac-Gly-Leu-Hyp-Gly-Glu (Linear Ac-CT2: linear Ac-GLOGE; SEQ ID NO: 13). * p<0.05, ** p<0.005. Evaluated by t-test. Data presented as mean+SEM.
Mice were injected for 6 weeks with CCl4 in order to induce liver fibrosis. Starting on day 32 the mice received daily intraperitoneal injections of the peptides at a final dose of 25 mg/kg/mouse/day diluted in NaCl 0.9% for a total of 10 days. In these experiments, the following peptides were tested: cyclic peptide Pro-Gly-Leu-Gln-Gly-Glu (SEQ ID NO: 6), cyclic peptide Pro-Gly-Leu-Asn-Gly-Glu (SEQ ID NO: 11), cyclic peptide Pro-Gly-Leu-Hyp-Gly-Glu (SEQ ID NO: 16), linear peptide Gly-Leu-Gln-Gly-Glu-NH2 (SEQ ID NO: 4), linear peptide Gly-Leu-Asn-Gly-Glu-NH2 (SEQ ID NO: 9), linear peptide Gly-Leu-Hyp-Gly-Glu-NH2 (SEQ ID NO: 14).
Mice were injected for 6 weeks with CCl4 in order to induce liver fibrosis. Starting on day 32 the mice received daily intraperitoneal injections of the peptides at a final dose of 25 mg/kg/mouse/day diluted in NaCl 0.9% for a total of 10 days. In these experiments, the following peptides were tested: cyclic peptide Gly-Leu-Gln-Gly-Glu (SEQ ID NO: 5), cyclic peptide Gly-Leu-Asn-Gly-Glu (SEQ ID NO: 10), cyclic peptide Gly-Leu-Hyp-Gly-Glu (SEQ ID NO: 15), linear peptide Ac-Gly-Leu-Gln-Gly-Glu (SEQ ID NO: 3), linear peptide Ac-Gly-Leu-Asn-Gly-Glu (SEQ ID NO: 8), linear peptide Ac-Gly-Leu-Hyp-Gly-Glu (SEQ ID NO: 13).

[3] = test system: TGFβ expression in murine hepatocytes; experiment: unstimulated TGFβ expression in murine hepatocytes; type: cell-based; settings: data not shown

Row | Molecule | collagen accumulation in the liver (marker of matrix accumulation) [2] | unstimulated TGFβ expression [3] | further results
1 | CC(C)C[C@@H]1NC(=O)CNC(=O)[C@H](CCC(=O)O)NC(=O)CNC(=O)[C@H](CCC(N)=O)NC1=O [SEQ ID NO: 5 (acetate salt), Gly-Leu-Gln-Gly-Glu] (HELM PEPTIDE1{E.G.L.Q.G}$PEPTIDE1,PEPTIDE1,1:R1-5:R2$$$V2.0) |  |  | total amount of collagen in the lung [1]: significantly diminished
2 | CC(C)C[C@@H]1NC(=O)CNC(=O)[C@H](CCC(=O)O)NC(=O)CNC(=O)[C@H](CC(N)=O)NC1=O [SEQ ID NO: 10, Gly-Leu-Asn-Gly-Glu, reference compound] (HELM PEPTIDE1{E.G.L.N.G}$PEPTIDE1,PEPTIDE1,1:R1-5:R2$$$V2.0) | failed to inhibit collagen accumulation |  | 
3 | CC(C)C[C@H](NC(=O)CN)C(=O)N1C[C@@H](O)C[C@H]1C(=O)NCC(=O)N[C@@H](CCC(=O)O)C(N)=O [SEQ ID NO: 14, Gly-Leu-Hyp-Gly-Glu-NH2] |  | had no effect | 
4 | CC(C)C[C@@H]1NC(=O)CNC(=O)[C@H](CCC(=O)O)NC(=O)CNC(=O)[C@@H]2C[C@@H](O)CN2C1=O [SEQ ID NO: 15, Gly-Leu-Hyp-Gly-Glu, reference compound] (HELM PEPTIDE1{E.G.L.[Hyp].G}$PEPTIDE1,PEPTIDE1,1:R1-5:R2$$$V2.0) | failed to inhibit collagen accumulation |  | 
5 | Ac-GLQGE [SEQ ID NO: 3, Ac-Gly-Leu-Gln-Gly-Glu] | able to significantly reduce CCl4-induced collagen accumulation |  | 
6 | GLNGE-NH2 [SEQ ID NO: 9, Gly-Leu-Asn-Gly-Glu-NH2] |  | had no effect | 
7 | GLQGE-NH2 [SEQ ID NO: 4, Gly-Leu-Gln-Gly-Glu-NH2] | able to significantly reduce CCl4-induced collagen accumulation | efficiently inhibits | 
8 | Gly-Leu-Gln-Gly-Glu (GLQGE; SITE 1..5 peptide bond between the amino-terminus and the carboxyl-terminus; listed as Homo sapiens) [SEQ ID NO: 5] | able to significantly reduce collagen accumulation |  | efficiency in reducing collagen accumulation in comparison to the cyclic peptide with proline Pro-Gly-Leu-Gln-Gly-Glu (SEQ ID NO: 6) ([2]; CCl4 liver fibrosis in mice, comparison of Y-axis values of FIGS. 1 and 2, p<0.001): more efficient in reducing collagen accumulation; inhibitory effect on collagen accumulation compared to linear Gly-Leu-Gln-Gly-Glu-NH2 (SEQ ID NO: 4) or Ac-Gly-Leu-Gln-Gly-Glu (SEQ ID NO: 3) ([2]; chemically induced chronic liver damage in mice): larger inhibitory effect
9 | PGLQGE [SEQ ID NO: 6] | able to significantly reduce collagen accumulation |  | 
